Where “and” joins values, the source holds several entries; their conditions need not be identical. Identical values can stand only once.
How the values were obtained:
[1] = pKa measurement of the cationic lipid (TNS fluorescence vs pH); assay type: physicochemical; details: probe TNS (fluorescent probe), pKa of the cationic lipid of formula (I)
Experimental: Unless indicated otherwise, all pKa's referred to herein were measured at standard temperature and pressure. Also, unless otherwise indicated, all references to pKa are references to pKa measured using the following technique. 2 mM solution of lipid in ethanol was prepared by weighing the lipid and then dissolving it in ethanol. 0.3 mM solution of fluorescent probe TNS in ethanol:methanol 9:1 was prepared by first making 3 mM solution of TNS in methanol and then diluting to 0.3 mM with ethanol. An aqueous buffer containing 200 mM sodium phosphate dibasic and 100 mM citric acid was prepared. […] Using the Hamilton Microlab Star high throughput liquid handler and Hamilton run control software Software, 7.5 uL of probe/lipid mix were added to 242.5 uL of buffer in a 1 mL 96 well plate (model NUNC 260252, […] Nunc International). This was done with all twelve buffers. After mixing in 1 mL 96 well plate, 100 uL of each probe/lipid/buffer mixture was transferred to a 250 uL black with clear bottom 96 well plate (model COSTAR 3904, Corning). The fluorescence measurements are carried out on the SpectraMax M5 spectrophotometer using software SoftMax pro 5.2 and following parameters: After the measurement, the background fluorescence value of an empty well on the 96 well plate was subtracted from each probe/lipid/buffer mixture. The fluorescence intensity values were then normalized to the value at lowest pH. The normalized fluorescence intensity vs. pH chart was then plotted in the Microsoft Excel software. The twelve points were connected with a smooth line. The point on the line at which the normalized fluorescence intensity was equal to 0.5 was found. […] The pKa determined using this method is precise to about 0.1 pKa units.

[2] = tested on: respiratory syncytial virus F protein; assay: Immunization studies: anti-RSV-F titers after liposome-delivered vA317 self-replicating RNA; assay type: in vivo; details: BALB/c mice, liposomes with 0.1 μg vA317 replicon (naked control 1 μg); for anti-RSV-F titer 2wp1 pool 1 / anti-RSV-F titer 2wp1 pool 2: 2 weeks after first dose; for anti-RSV-F titer 2wp2 pool 1 / anti-RSV-F titer 2wp2 pool 2: 2 weeks after second dose; for anti-RSV-F titer 4wp2 pool 1 / anti-RSV-F titer 4wp2 pool 2: 4 weeks after second dose
Experimental: BALB/c were immunized with liposomes comprising DSPC, cholesterol, and various lipids of the invention (or, for comparison, the cationic lipid 1,2-dilinoleyloxy-N,N-dimethyl-3-aminopropane or ‘DLinDMA’). The liposomes encapsulated 0.1 μg of “vA317” self-replicating RNA replicon which encodes respiratory syncytial virus F protein (see WO2012/031043). […] Doses were given either on days 0 & 21 or days 0 & 42. Immune responses were assessed 2 weeks after each dose (2wp1, 2wp2), and in some cases also at 4 weeks after the second dose (4wp2). Four series of experiments were performed, each with its own naked control.

[3] = Polydispersity index (PDI) of the lipid nanoparticle (dynamic light scattering); assay type: physicochemical; details: Table 4, FVII siRNA LNP
Excerpt: The lipid nanoparticles (LNPs) were formed by mixing equal volumes of lipids dissolved in alcohol with siRNA dissolved in a citrate buffer by an impinging jet process. […] The siRNA to total lipid ratio is approximately 0.05 (wt/wt). Where a LNP formulation contains four lipid components, the molar ratios correspond to the type of lipid as it appears in the first four columns of the table, in the order that they appear. The ratio of the lipids ranges from 20 to 70 mole percent for the cationic lipid with a target of 40-60, the mole percent of helper lipid ranges from 20 to 70 with a target of 30 to 50, the mole percent of neutral lipid ranges from 0-30, the mole percent of PEG lipid has a range from 1 to 6 with a target of 2 to 5. The concentration of siRNA solution ranges from 0.7 to 1.0 mg/mL with a target of 0.8 to 0.9 mg/mL in a sodium citrate: sodium chloride buffer pH 4-6, with a target of 4.5-5.5. The LNPs are formed by mixing equal volumes of lipid solution in ethanol with siRNA dissolved in a citrate buffer by an impinging jet process through a mixing device with ID ranging from 0.25 to 2.0 mm at a flow rate from 10 to 640 mL/min. The mixed LNP solution is held at room temperature for 0-24 hrs prior to a dilution step. […] The final product is sterile filtered and stored at 4° C. Unless indicated otherwise, all PDIs referred to herein are the PDI of the fully formed nanoparticle, as measured by dynamic light scattering on a Malvern Zetasizer. The nanoparticle sample was diluted in phosphate buffered saline (PBS) so that the count rate was approximately 200-400 kcts. The data is presented in Tables 4 and 5 as a weighted average of the intensity measure.

[4] = Chol/DSPC/stealth lipid S010, 45/44/9/2

Compound	pKa ([1]; Table 4)	anti-RSV-F titer 2wp1 pool 1 ([2]; Course A = days 0 & 21)	anti-RSV-F titer 2wp1 pool 2 ([2]; Course A = days 0 & 21)	anti-RSV-F titer 2wp2 pool 1 ([2]; Course A = days 0 & 21)	anti-RSV-F titer 2wp2 pool 2 ([2]; Course A = days 0 & 21)	anti-RSV-F titer 4wp2 pool 1 ([2]; Course A = days 0 & 21)	anti-RSV-F titer 4wp2 pool 2 ([2]; Course A = days 0 & 21)	also measured
CCCCCCCCC(CCCCCCCC)CC(=O)OCCCOc1cc(CN(C)C)cc(OCCCOC(=O)CC(CCCCCCCC)CCCCCCCC)c1 [Example 56]	5.93	–	–	–	–	–	–	–
CCCCCCCC/C=C\CCCCCCCCOc1cc(OCCCCCCCC/C=C\CCCCCCCC)cc(C2OCC(CN3CCCC3)O2)c1 (stereo not drawn) [Example 9]	–	1832	1352	29707	18788	–	–	–
CCCCCCCCCC(=O)OCCCCCCCC(=O)OCc1cc(COC(=O)CCCCCCCOC(=O)CCCCCCCCC)cc(CN(C)C)c1 [Example 83]	6.15	–	–	–	–	–	–	PDI [3, 4]: 0.005
CCCCC/C=C\C/C=C\CCCCCCCCOc1cc(COC(=O)CCN(C)C)cc(OCCCCCCCC/C=C\C/C=C\CCCCC)n1 [Example 31]	6.01	–	–	–	–	–	–	PDI [3, 4]: 0.049
CCCCC/C=C\C/C=C\CCCCCCCC(=O)OCCCOc1cc(CN(C)C)cc(OCCCOC(=O)CC(CCCCCCCC)CCCCCCCC)c1 [Example 97]	5.82	–	–	–	–	–	–	–
CCCCC/C=C\C/C=C\CCCCCCCC(=O)OCc1cc(COC(=O)CCCCCCC/C=C\C/C=C\CCCCC)cc(COC(=O)OCCN(C)C)c1 [Example 70]	–	1416	3110	31550	20124	18779	18358	–
CCCCC/C=C\C/C=C\CCCCCCCCOc1cc(CN(C)C)cc(OCCCCOC(=O)CCC(COC(=O)CCCCC)COC(=O)CCCCC)c1C [Example 104]	6.02	–	–	–	–	–	–	–
CCCCC/C=C\C/C=C\CCCCCCCCOc1cc(CCCOC(=O)CCN(C)C)cc(OCCCCCCCC/C=C\C/C=C\CCCCC)c1 [Example 81]	–	1779	1553	24648	15304	41921	34684	–
CCCCC/C=C\C/C=C\CCCCCCCCOCC(CN(C)C)OCCCCCCCC/C=C\C/C=C\CCCCC (stereo not drawn) [DLinDMA, 1,2-dilinoleyloxy-N,N-dimethyl-3-aminopropane, reference compound]	–	–	–	–	–	26504 and 50799	28008 and 35992	anti-RSV-F titer 2wp1 pool 1 ([2]; Course B = days 0 & 42): 13; anti-RSV-F titer 2wp1 pool 2 ([2]; Course B = days 0 & 42): 4; anti-RSV-F titer 2wp2 pool 1 ([2]; Course B = days 0 & 42): 18290; anti-RSV-F titer 2wp2 pool 2 ([2]; Course B = days 0 & 42): 5538; anti-RSV-F titer 4wp2 pool 1 ([2]; Course B = days 0 & 42): 13936; anti-RSV-F titer 4wp2 pool 2 ([2]; Course B = days 0 & 42): 7020
CCCCCCCC/C=C\CCCCCCCCOc1cc(CN(C)C)cc(OCCCCCCCC/C=C\CCCCCCCC)c1 [Example 1]	5.59	–	–	–	–	–	–	pKa ([1]; Table 5): 5.59; PDI ([3]; Chol/DSPC/stealth lipid PEG-DMG, 45/44/9/2): 0.05
CCCCC/C=C\C/C=C\CCCCCCCCOc1cc(COC(=O)OCCCN(C)C)cc(OCCCCCCCC/C=C\C/C=C\CCCCC)c1 [Example 68]	–	1031	494	11315	7800	12963	17734	–
CCCCC/C=C\C/C=C\CCCCCCCCOc1cc(C(=O)OCCCN(C)C)cc(OCCCCCCCC/C=C\C/C=C\CCCCC)n1 [Example 25]	–	1217	1883	1611	1156	2850	1767	–
CCCCC/C=C\C/C=C\CCCCCCCCOC(=O)CCC(=O)OCc1cc(COC(=O)CCC(=O)OCCCCCCCC/C=C\C/C=C\CCCCC)cc(CN(C)C)c1 [Example 77]	6.09	–	–	–	–	–	–	PDI [3, 4]: 0.014

Source: patent US9504747B2, “Lipids and lipid compositions for the delivery of active agents” (Novartis AG, priority 2013, dated 2016)
